Laboratory results: patent publication US20250382344A1, “Soluble GLP1/GIP/NPY2 Receptor Triple Agonists” (Boehringer Ingelheim International GmH, priority 2024, published 2025)
Read-outs that look alike come from different tables or passages of the source. Where a SMILES comes first, the peptide text is derived from it. Side-chain parts run from the residue outwards. [ ]: non-standard residue; d: D form. The star is where a group is joined. ξ: configuration not given here. C18 diacid = O=C(O)CCCCCCCCCCCCCCCCC(=O)*; NMeY = CN[C@@H](Cc1ccc(O)cc1)C(=O)O; Palmitoyl = CCCCCCCCCCCCCCCC(=O)*; αMeF = C[C@](N)(Cc1ccccc1)C(=O)O; ξIva = CCC(C)(N)C(=O)O; Aib = CC(C)(N)C(=O)O

Assay: Solubility in 0.1 M phosphate buffer at pH 7
Type: physicochemical
Conditions: 0.1 M phosphate buffer at pH 7, 10 mg/mL final peptide concentration, shaking 2 hours at room temperature, peptides as TFA-salts, measured sample pH 6.5-7.0
Experimental: Peptides (as TFA-salts) were weighed out in a filter unit (Mini-UniPrep Syringeless Filter 0.45 μm, Whatman PVDF), and 0.1 M phosphate buffer at pH 7 was added to achieve 10 mg/mL final peptide concentration. The peptides were dissolved by shaking the filter units horizontally at 600 rpm for 2 hours at room temperature. Samples were then filtered to remove any insoluble particles. Controls were prepared by weighing out the corresponding peptide solid material and dissolving it in an appropriate vehicle (e.g. ACN:H2O) to a final concentration of 1 mg/mL. Both, the control and sample were analyzed by reversed phase chromatography. The area under the peak of the sample was compared to the control and the solubility was calculated based on that ratio. The pH was measured and recorded for each sample.

Row | solubility [µg/mL] | solubility at 2 h [µg/mL] | solubility (read-out: Solubility) [µg/mL] | Compound
1 | <1000 | < 1000 |  | CC[C@H](C)[C@H](NC(=O)[C@H](CO)NC(=O)[C@H](CCCCNC(=O)CNC(=O)CNC(=O)CNC(=O)CNC(=O)CCCCCCCCCCCCCCCCC(=O)O)NC(=O)[C@H](CC(=O)O)NC(=O)[C@H](CO)NC(=O)[C@@H](NC(=O)[C@](C)(Cc1ccccc1)NC(=O)[C@@H](NC(=O)CNC(=O)[C@H](CCC(=O)O)NC(=O)C(C)(C)NC(=O)[C@@H](N)Cc1ccc(O)cc1)[C@@H](C)O)[C@@H](C)O)C(=O)NC(C)(C)C(=O)N[C@@H](CC(C)C)C(=O)N[C@@H](CCC(=O)O)C(=O)N[C@@H](CCCCN)C(=O)N[C@@H](CCC(N)=O)C(=O)N[C@@H](CCCNC(=N)N)C(=O)N[C@@H](CCC(N)=O)C(=O)NC(C)(CC)C(=O)N[C@@H](CCC(=O)O)C(=O)N[C@@H](Cc1ccccc1)C(=O)N[C@H](C(=O)N[C@@H](CCCNC(=N)N)C(=O)N[C@@H](Cc1c[nH]cn1)C(=O)N[C@@H](CC(C)C)C(=O)N[C@@H](CC(C)C)C(=O)N[C@@H](CC(N)=O)C(=O)N[C@@H](CCCCN)C(=O)NC(C)(C)C(=O)N[C@H](C(=O)N[C@@H](CCCNC(=N)N)C(=O)N[C@@H](CCC(N)=O)C(=O)N[C@@H](CCCNC(=N)N)C(=O)N[C@@H](Cc1ccc(O)cc1)C(N)=O)[C@@H](C)O)C(C)C (stereo partly drawn) [Ref. 3, Y-Aib-E-G-T-aMeF-T-S-D-K(1,3)-S-I-Aib-L-E-K-Q-R-Q-Iva-E-F-V-R-H-L-L-N-K-Aib-T-R-Q-R-Y-NH2.C18DA-G-G-G-G(1,2), reference compound] (H-Y[Aib]EGT[αMeF]TSDK([Gly-Gly-Gly-Gly-C18 diacid])SI[Aib]LEKQRQ[ξIva]EFVRHLLNK[Aib]TRQRY-NH2)
2 |  |  | 9400 | CC[C@H](C)[C@H](NC(=O)[C@H](CC(C)C)NC(=O)[C@H](Cc1c[nH]cn1)NC(=O)[C@H](CCCNC(=N)N)NC(=O)[C@@H](NC(=O)[C@H](Cc1ccccc1)NC(=O)[C@H](C)NC(=O)C(C)(C)NC(=O)[C@H](CCC(N)=O)NC(=O)[C@H](C)NC(=O)[C@H](CCC(N)=O)NC(=O)[C@H](CCCCN)NC(=O)[C@H](CCC(=O)O)NC(=O)[C@H](CC(C)C)NC(=O)C(C)(C)NC(=O)[C@@H](NC(=O)[C@H](CO)NC(=O)[C@H](Cc1ccc(O)cc1)NC(=O)[C@H](CC(=O)O)NC(=O)[C@H](CO)NC(=O)[C@@H](NC(=O)[C@H](Cc1ccccc1)NC(=O)[C@@H](NC(=O)CNC(=O)[C@H](CCC(=O)O)NC(=O)C(C)(C)NC(=O)[C@@H](N)Cc1ccc(O)cc1)[C@@H](C)O)[C@@H](C)O)[C@@H](C)CC)C(C)C)C(=O)N[C@@H](CC(N)=O)C(=O)N[C@@H](CCCCNC(=O)CC[C@H](NC(=O)CC[C@H](NC(=O)[C@@H](N)CCCCNC(=O)CC[C@H](NC(=O)CC[C@H](NC(=O)CC[C@H](NC(=O)CC[C@H](NC(=O)CCCCCCCCCCCCCCCCCCC(=O)O)C(=O)O)C(=O)O)C(=O)O)C(=O)O)C(=O)O)C(=O)O)C(=O)NC(C)(C)C(=O)N[C@H](C(=O)N[C@@H](CCCNC(=N)N)C(=O)N[C@@H](CCC(N)=O)C(=O)N[C@@H](CCCNC(=N)N)C(=O)N[C@@H](Cc1ccc(O)cc1)C(N)=O)[C@@H](C)O [Compound 52, Y-Aib-E-G-T-F-T-S-D-Y-S-I-Aib-L-E-K-Q-A-Q-Aib-A-F-V-R-H-L-I-N-K(1,3)-Aib-T-R-Q-R-Y-NH2.C20DA-gGlu-gGlu-gGlu-gGlu-eLys-gGlu-gGlu(1,2)]
3 | <1000 | < 1000 |  | CCCCCCCCCCCCCCCC(=O)NCC(=O)NCC(=O)NCC(=O)NCC(=O)NCCCC[C@H](NC(=O)[C@H](CC(=O)O)NC(=O)[C@H](CO)NC(=O)[C@@H](NC(=O)[C@](C)(Cc1ccccc1)NC(=O)[C@@H](NC(=O)CNC(=O)[C@H](CCC(=O)O)NC(=O)C(C)(C)NC(=O)[C@H](Cc1ccc(O)cc1)NC)[C@@H](C)O)[C@@H](C)O)C(=O)N[C@@H](CO)C(=O)N[C@H](C(=O)NC(C)(C)C(=O)N[C@@H](CC(C)C)C(=O)N[C@@H](CCC(=O)O)C(=O)N[C@@H](CCCCN)C(=O)N[C@@H](CCC(N)=O)C(=O)N[C@@H](CCCNC(=N)N)C(=O)N[C@@H](CCC(N)=O)C(=O)NC(C)(CC)C(=O)N[C@@H](CCC(=O)O)C(=O)N[C@@H](Cc1ccccc1)C(=O)N[C@H](C(=O)N[C@@H](CCCNC(=N)N)C(=O)N[C@@H](Cc1c[nH]cn1)C(=O)N[C@@H](CC(C)C)C(=O)N[C@@H](CC(C)C)C(=O)N[C@@H](CC(N)=O)C(=O)N[C@@H](CCCCN)C(=O)NC(C)(C)C(=O)N[C@H](C(=O)N[C@@H](CCCNC(=N)N)C(=O)N[C@@H](CCC(N)=O)C(=O)N[C@@H](CCCNC(=N)N)C(=O)N[C@@H](Cc1ccc(O)cc1)C(N)=O)[C@@H](C)O)C(C)C)[C@@H](C)CC (stereo partly drawn) [Ref. 1, NMeY-Aib-E-G-T-aMeF-T-S-D-K(1,3)-S-I-Aib-L-E-K-Q-R-Q-Iva-E-F-V-R-H-L-L-N-K-Aib-T-R-Q-R-Y-NH2.C16A-G-G-G-G(1,2), reference compound] (H-[NMeY][Aib]EGT[αMeF]TSDK([Gly-Gly-Gly-Gly-Palmitoyl])SI[Aib]LEKQRQ[ξIva]EFVRHLLNK[Aib]TRQRY-NH2)
4 |  |  | 10000 | CC[C@H](C)[C@H](NC(=O)[C@H](CC(C)C)NC(=O)[C@H](Cc1c[nH]cn1)NC(=O)[C@H](CCCNC(=N)N)NC(=O)[C@@H](NC(=O)[C@H](Cc1ccccc1)NC(=O)[C@H](C)NC(=O)C(C)(C)NC(=O)[C@H](CCC(N)=O)NC(=O)[C@H](C)NC(=O)[C@H](CCC(=O)O)NC(=O)[C@H](CCCCN)NC(=O)[C@H](CCC(=O)O)NC(=O)[C@H](CC(C)C)NC(=O)C(C)(C)NC(=O)[C@@H](NC(=O)[C@H](CO)NC(=O)[C@H](Cc1ccc(O)cc1)NC(=O)[C@H](CC(=O)O)NC(=O)[C@H](CO)NC(=O)[C@@H](NC(=O)[C@H](Cc1ccccc1)NC(=O)[C@@H](NC(=O)CNC(=O)[C@H](CCC(=O)O)NC(=O)C(C)(C)NC(=O)[C@@H](N)Cc1ccc(O)cc1)[C@@H](C)O)[C@@H](C)O)[C@@H](C)CC)C(C)C)C(=O)N[C@@H](CC(N)=O)C(=O)N[C@@H](CCCCNC(=O)[C@@H](N)CCCCNC(=O)[C@H](CCC(=O)O)NC(=O)CC[C@H](NC(=O)CC[C@H](NC(=O)CC[C@H](NC(=O)CC[C@H](NC(=O)CC[C@H](NC(=O)CCCCCCCCCCCCCCCCCCC(=O)O)C(=O)O)C(=O)O)C(=O)O)C(=O)O)C(=O)O)C(=O)NC(C)(C)C(=O)N[C@H](C(=O)N[C@@H](CCCNC(=N)N)C(=O)N[C@@H](CCC(N)=O)C(=O)N[C@@H](CCCNC(=N)N)C(=O)N[C@@H](Cc1ccc(O)cc1)C(N)=O)[C@@H](C)O [Compound 28, Y-Aib-E-G-T-F-T-S-D-Y-S-I-Aib-L-E-K-E-A-Q-Aib-A-F-V-R-H-L-I-N-K(1,3)-Aib-T-R-Q-R-Y-NH2.C20DA-gGlu-gGlu-gGlu-gGlu-gGlu-gGlu-eLys(1,2)]
